The source of these data is patent publication US20100098791A1, “COMPOSITION FOR TREATING XEROSTOMIA OR DRY MOUTH” (priority 2007, published 2010).

This assay can be described thus: Dentin loss under extreme erosion conditions, composition versus its three ingredients separately (Example 8). The arrangement: species or system cow. The following applies: 10 cycles: 5 min pre-treatment, 1% citric acid pH 2.3 for 3 min. How it is done:
The protective capacity of a mouthwash formulated with olive oil, trimethylglycine and xylitol in dentin subjected to extreme erosion conditions was analysed, compared to that of aqueous solutions of the three ingredients separately in the same concentrations used in the mouthwash tested. For the evaluation of effects a control was included consisting of distilled water.
Incisive teeth extracted from a cow's jaw were used, which were immersed in a 0.5% thymol solution at room temperature. The teeth were sectioned at the cementum-enamel junction by means of a water-cooled diamond scalpel (Exakt, Norderstedt, Germany), and the crowns and roots were embedded in acrylic resin cylinders (Paladur, Heraeus Kulzer, Wehrheim, Germany). Radicular cementum was completely eliminated. […]
Dentin loss was quantified performing profile or profilometric measurements (Mahr Perthometer, Göttingen, Germany). […] After the experiment the adhesive tapes were removed and the samples were analysed again. The average depth of the eroded surfaces was thus calculated with respect to basic surface profiles by means of specific software (Mahr Perthometer Concept 7.0, Mahr, Göttingen, Germany).
Dentin loss was calculated (mean±standard deviation) for each group and statistically analysed by Student's t test followed by Bonferroni's t test for multiple comparisons (Statistica 6.0, Statsoft, Tulsa, USA).

Turning to `OC[C@@H](O)[C@H](O)[C@@H](O)CO` [1% xylitol solution, xylitol], the “protective effect on dentin against erosion” value is given as “did not demonstrate any protective effect”.
The same measure for `C[N+](C)(C)CC(=O)[O-]` [2% trimethylglycine solution, trimethylglycine]: “did not demonstrate any protective effect”.
